From patent publication US20050203119A1, “Dihydropyridine compounds for treating or preventing metabolic disorders” (priority 2003, published 2005)

Assays:
primary rat hepatocytes = assay: In vitro cytotoxicity study on primary rat hepatocytes (MTS); type: cell-based; conditions: Hepatocyte, 20 hours treatment with 0.4, 2, 10 and 50 μM, absorbance at 490 nm, read-out: Average EC50 (hepatocytes from at least 2 rats)
Description: Male SD rats having body weights of approximately 200 g were used for the study. Hepatocytes were freshly isolated and seeded with 15,000 cells/well in 96 wells coated with 100 μl collagen. The hepatocytes were cultured for 3-4 hours with HCM Bulletkit medium (Clonetics #CC-3198) then treated with 0.4 μM, 2 μM, 10 μM and 50 μM of a test compound for 20 hours. Flepatocytes were then incubated with MTS reagent (Promega #G5421) for 2-3 hours and absorbance in each well at […] was measured to determine the number of living cells in each well (the absorbance at 490 nm is directly proportional to the number of living cells in the well). The EC50 for each test compound was calculated with the Excel Xlfit wizard program based on the optical density values compared with vehicle treated cells.

male ob/ob mice = assay: Oral glucose tolerance test in glucose-loaded ob/ob mice (Example 114, FIG. 1); type: in vivo, mouse
Description: Blood glucose was measured at 0, 30, 120 and 240 min post-glucose loading. Metformin and rosiglitazone were used as references.

C57BLKS/J-m+/+Lepr db = assay: Glucose reduction, Compound 36 in combination with rosiglitazone, db/db mice, 6 days (Example 117); type: in vivo, mouse; conditions: for Serum Glucose % Normalized Reduction: relative to vehicle
Description: C57BLKS/J-m+/+Lepr db were obtained from the Institute for Animal Reproduction (IAR, Japan), and randomized for equivalent mean blood glucose on day 0 (n=8/group). One group served as the vehicle control (0.5% methyl cellulose). […] Group 3 received 0.5 mg/kg rosiglitazone. […] All agents were administered once daily for 6 consecutive days starting on day 1. […] Post-treatment serum glucose value was expressed as percent pre-treatment from respective pre-treatment values, and percent reduction relative to vehicle control was calculated by subtracting from the percent pre-treatment of vehicle control.

[1] = system: NIDDM male mice (C57BLKS/J-m+/+Lepr db); assay: 7 day baseline glucose test in db/db mice (Example 119); type: in vivo, mouse; conditions: for Serum Glucose % Pre-Treatment Baseline: 3 hours after dose
Description: Non-insulin dependent diabetic mellitus (NIDDM) male mice (C57BLKS/J-m+/+Lepr db), weighing 50±5 g and 9-10-week old, were used. The animals were housed in Individually Ventilated Cages Racks (IVC Racks) throughout the experiment and all animals were allowed free access to sterilized Lab chow and sterilized distilled water. Compounds 39, 41 and 64 at 50 mg/kg as well as vehicle (0.5% Methylcellulose) were administered orally once daily for 7 consecutive days to test animals after the first blood sampling (pre-treatment). The post-treatment blood samples were withdrawn from the orbital sinus at 3 hours after administration of daily dose on day 3 and on day 7. Serum glucose levels in the pre- and post-treatment were determined by enzymatic (Mutaratase-GOD) methods. Post-treatment serum glucose values were expressed in percentage of respective pre-treatment values. Percentage reductions were expressed in percentage of pre-treatment values of test substance relative to percentage of pre-treatment values of vehicle. All percentages were calculated and unpaired; Student's t test was then applied to establish significant difference between the test compound-treated and vehicle control groups. Differences are considered significant at P<0.05.

[2] = system: male db/db mice (BKS.Cg-m+/+Lepr db/J); assay: Intraperitoneal glucose tolerance test (IPGTT) in db/db mice (Example 122, FIGS. 3 and 5); type: in vivo, mouse; conditions: Mus musculus, po, 0.75 h, read-out: Ave. % Change in Glucose Intolerance at +45 min
Description: Six to eight week old, male db/db mice (BKS.Cg-m+/+Lepr^db/J; stock number 000642), homozygous for a mutation in the gene encoding the leptin receptor, were purchased from The Jackson Laboratory (Bar Harbor, Me. USA). Animals were singly housed in conventional caging on a 12 hr/12 hr light/dark cycle, acclimated for at least five days prior to use and fed normal laboratory chow ad libitum between experiments. Studies were conducted with animals between seven and fourteen weeks of age. Animals were used for a maximum of five consecutive studies, with a minimum recovery period of five days between studies.
To perform an IPGTT or OGTT, db/db mice were fasted overnight beginning on day 0 at −17.5 to −18.5 hrs relative to the glucose dose on day 1 (all time points below are stated relative to the time of an intraperitoneal or oral glucose dose on day 1). At −4.5 hrs, animals were weighed, blood was collected by tail vein lancing and fasted blood glucose levels determined using a hand-held glucometer (MediSense Precision Xtra or LifeScan OneTouch Ultra). Animals were randomized into dosing groups of 6-7 animals, with each group having a similar average fasted blood glucose level. At −3 hr, animals were dosed with vehicle alone, a test compound or metformin by oral gavage at 5 ml/kg body weight. […] Blood glucose levels were determined as above at −45 min and +45 min, and also +90 min and/or +150 min (see FIG. 3 and the Table in this section). Alternatively, blood glucose levels were determined at −30 min, +30 min, +60 min and +120 min (see FIGS. 4 and 5).
Compound doses were adjusted to be the molar equivalents of 50 mg/kg of Compound 39. The percent change in blood glucose between −45 min and a time point, y, after glucose dosing (e.g., +45 min, +150 min, ect.) was calculated for each animal using formula 1: [formula]
The percent change in blood glucose between −45 min and a time point, y, after glucose dosing was calculated for each animal using formula 1.
Average percent change in glucose intolerance was calculated using Formula 2, as noted in the table below. […]

db/db mice = assay: Combination studies of rosiglitazone or metformin with Compound 39, 7 days (Example 121); type: in vivo, mouse
Description: Serum glucose levels in the pre-and post-treatment were determined enzymatically (Mutaratase-GOD). Post-treatment serum glucose values were expressed in percentage of respective pre-treatment values. Percentage reductions were expressed in percentage of pre-treatment values of test substance relative to percentage of respective pre-treatment values of vehicle. All percentages were calculated and unpaired; Student's t test was then applied to establish significant difference between the test compound-treated and vehicle control groups. Differences are considered significant at P<0.05.

Male SD rats = conditions: rat, in vivo
Description: Male SD rats weighing 350-420 g were anesthetized with 2-3% isoflurane. The femoral artery and vein were catheterized and connected to a mean arterial blood pressure (MAP) and heart rate (HR) monitor and a continuous intravenous infusion pump. Under anesthesia, MAP and HR were recorded 10-20 minutes prior to and during the continuous intravenous infusion of test compounds for 60-70 minutes. The infusion rate, 0.14-0.16 ml/kg/minute, was determined on the basis of vehicle tolerance. The infusion doses, 1.0-1.25 mg/kg/minute, were selected, depending upon the solubility of the compound and effects on MAP and HR of the positive control compounds at the lethal dose. The maximal effective dose or lethal dose of test compounds were determined accordingly.

[3] = system: C57BLKS/J-m+/+Lepr db male animals; assay: Glucose reduction by Compound 9 in db/db mouse model (Example 112); type: in vivo; conditions: 3.5 hours after administration
Description: C57BLKS/J-m+/+Lepr db male animals (8 weeks old) were purchased from the Jackson Laboratory (Bar Harbor, Me.) in this study. All animals were acclimated for at least one week, and randomized for equivalent mean blood glucose on day 0. Animals were divided into either vehicle or treatment groups (n=8/group). Compound 9 was formulated in 0.5% methylcellulose (ps400) and administered by oral gavage at 50 mg/kg once daily for 7 consecutive days. Blood glucose was monitored using One Touch Basic glucose monitor (Abbott) 3.5 hours after administration of test compound on day 3 and 7.

[4] = Day 3, 50 mg/kg orally once daily
[5] = Day 7, 50 mg/kg orally once daily
[6] = Day 3, metformin 150 mg/kg orally daily
[7] = Day 7, metformin 150 mg/kg orally daily
[8] = Day 3, rosiglitazone 0.5 mg/kg orally daily
[9] = Day 7, rosiglitazone 0.5 mg/kg orally daily

## CCOC(=O)C1=C(COCCN)NC2=C(C(=O)CC(C)(C)C2)C1c1ccccc1OC (stereo not shown) [Compound 16, 2-(2-Amino-ethoxymethyl)-4-(2-methoxy-phenyl)-7,7-dimethyl-5-oxo-1,4,5,6,7,8-hexahydro-quinoline-3-carboxylic acid ethyl ester]
Primary rat hepatocytes
  EC50: > 50 µM

## CCOC(=O)C1=C(COCCN)NC2=C(C(=O)CC(C)(C)C2)[C@@H]1c1ccccc1Cl [Compound 36, S-(−)-2-(2-amino-ethoxymethyl)-4-(2-chloro-phenyl)-7,7-dimethyl-5-oxo-1,4,5,6,7,8-hexahydro-quinoline-3-carboxylic acid ethyl ester; complex with benzenesulfonic acid]
Male ob/ob mice; 25 mg/kg orally, glucose 3 g/kg, fasted ob/ob mice
  blood glucose after oral glucose loading: approximately 200 mg/dl
C57BLKS/J-m+/+Lepr db; Day 3, Compound 36 10 mg/kg
  Serum Glucose % Pre-Treatment Baseline: 103.0 ± 2.4%
  Serum Glucose % Normalized Reduction: (2.6) %
C57BLKS/J-m+/+Lepr db; Day 3, Compound 36 25 mg/kg
  Serum Glucose % Pre-Treatment Baseline: 100.3 ± 2.8%
  Serum Glucose % Normalized Reduction: (5.3) %
C57BLKS/J-m+/+Lepr db; Day 6, Compound 36 10 mg/kg
  Serum Glucose % Pre-Treatment Baseline: 100.7 ± 4.6%
  Serum Glucose % Normalized Reduction: (7.2) %
C57BLKS/J-m+/+Lepr db; Day 6, Compound 36 25 mg/kg
  Serum Glucose % Pre-Treatment Baseline: 99.7 ± 5.4%
  Serum Glucose % Normalized Reduction: (8.2) %

## CCOC(=O)C1=C(COCCN)NC2=C(C(=O)CC(C)(C)C2)C1c1ccccc1F (stereo not shown) [Compound 12, 2-(2-amino-ethoxymethyl)-4-(2-fluoro-phenyl)-7,7-dimethyl-5-oxo-1,4,5,6,7,8-hexahydro-quinoline-3-carboxylic acid ethyl ester]
Primary rat hepatocytes
  EC50: > 50 µM

## CCOC(=O)C1=C(COCCN)NC2=C(C(=O)CC(C)(C)C2)C1c1ccccc1O (stereo not shown) [Compound 64, 2-(2-Amino-ethoxymethyl)-4-(2-hydroxy-phenyl)-7,7-dimethyl-5-oxo-1,4,5,6,7,8-hexahydro-quinoline-3-carboxylic acid ethyl ester]
Primary rat hepatocytes
  EC50: > 50 µM
[1]; [4]
  serum glucose % Reduction relative to vehicle: (10) %
  Serum Glucose % Pre-Treatment Baseline: 85.9%
[1]; [5]
  serum glucose % Reduction relative to vehicle: (12) %
  Serum Glucose % Pre-Treatment Baseline: 88.6%

## CC1=C(C#N)C(C2CC2)C2=C(CC(C)(C)CC2=O)N1 (stereo not shown) [Compound 222, 2,7,7-Trimethyl-4-cyclopropyl-5-oxo-1,4,5,6,7,8-hexahydro-quinoline-3-carbonitrile]
Primary rat hepatocytes
  EC50: > 50 µM

## CCOC(=O)C1=C(COCCN)NC2=C(C(=O)CC(C)(C)C2)[C@H]1c1cccnc1 [39 R-enantiomer, (+)-(R)-2-(2-Amino-ethoxymethyl)-7,7-dimethyl-5-oxo-4-pyridin-3-yl-1,4,5,6,7,8-hexahydro-quinoline-3-carboxylic acid ethyl ester]
Primary rat hepatocytes
  EC50: > 50 µM

## CN(C)C(=N)N=C(N)N [metformin]
Male ob/ob mice; metformin 100 mg/kg (FIG. 1), glucose 3 g/kg, fasted ob/ob mice
  blood glucose after oral glucose loading: approximately 200 mg/dl
[2]
  change in vivo at 150 mg/kg: -48.7%
db/db mice; [6]
  Serum Glucose % Pre-Treatment Baseline: 68.5 ± 3.7%
  serum glucose % Reduction relative to vehicle: (26.4) %
db/db mice; [7]
  Serum Glucose % Pre-Treatment Baseline: 72.2 ± 5.7%
  serum glucose % Reduction relative to vehicle: (28.7) %

## CCOC(=O)C1=C(COCCN)NC2=C(C(=O)CC(C)(C)C2)C1c1ccc(C)o1 (stereo not shown) [Compound 206, 2-(2-Amino-ethoxymethyl)-7,7-dimethyl-4-(5-methyl-furan-2-yl)-5-oxo-1,4,5,6,7,8-hexahydro-quinoline-3-carboxylic acid ethyl ester]
Primary rat hepatocytes
  EC50: > 50 µM

## CC1(C)CC(=O)C2=C(C1)NC(COCCN)=C(C#N)C2c1ccccc1Cl (stereo not shown) [Compound 41, 2-(2-Amino-ethoxymethyl)-4-(2-chloro-phenyl)-7,7-dimethyl-5-oxo-1,4,5,6,7,8-hexahydro-quinoline-3-carbonitrile]
[1]; [4]
  serum glucose % Reduction relative to vehicle: (2) %
  Serum Glucose % Pre-Treatment Baseline: 93.3%
[1]; [5]
  serum glucose % Reduction relative to vehicle: (6) %
  Serum Glucose % Pre-Treatment Baseline: 94.1%

## CCOC(=O)C1=C(COCCN)NC2=C(C(=O)CC(C)(C)C2)C1c1ccco1 (stereo not shown) [Compound 96, 2-(2-Amino-ethoxymethyl)-4-furan-2-yl-7,7-dimethyl-5-oxo-1,4,5,6,7,8-hexahydro-quinoline-3-carboxylic acid ethyl ester]
Primary rat hepatocytes
  EC50: > 50 µM

## CCOC(=O)C1=C(COCCN)NC(C)=C(C(=O)OC)C1c1ccccc1Cl (stereo not shown) [Amlodipine, amlodipine, reference compound]
Male SD rats
  Lethal Dose: ˜12.7 mg/kg

## CCOC(=O)C1=C(C)NC2=C(C(=O)CC(C)(C)C2)C1c1cccnc1 (stereo not shown) [Compound 202, 2,7,7-Trimethyl-4-(pyrid-3-yl)-5-oxo-1,4,5,6,7,8-hexahydro-quinoline-3-carboxylic acid ethyl ester]
Primary rat hepatocytes
  EC50: > 50 µM

## CCOC(=O)C1=C(COCCN)N(C)C2=C(C(=O)CC(C)(C)C2)C1c1cccnc1 (stereo not shown) [Compound 66, 2-(2-Amino-ethoxymethyl)-1,7,7-trimethyl-5-oxo-4-pyridin-3-yl-1,4,5,6,7,8-hexahydro-quinoline-3-carboxylic acid ethyl ester]
Primary rat hepatocytes
  EC50: > 50 µM

## CN(CCOc1ccc(CC2SC(=O)NC2=O)cc1)c1ccccn1 (stereo not shown) [rosiglitazone, reference compound]
Male ob/ob mice; rosiglitazone 1 mg/kg (FIG. 1), 4 hours post-glucose loading
  blood glucose after oral glucose loading: ~300 mg/dL
C57BLKS/J-m+/+Lepr db; Day 3, rosiglitazone 0.5 mg/kg
  Serum Glucose % Pre-Treatment Baseline: 90.3 ± 3.1%
  Serum Glucose % Normalized Reduction: (15.3) %
C57BLKS/J-m+/+Lepr db; Day 6, rosiglitazone 0.5 mg/kg
  Serum Glucose % Pre-Treatment Baseline: 79.1 ± 1.9%
  Serum Glucose % Normalized Reduction: 28.8%
C57BLKS/J-m+/+Lepr db; Day 6, rosiglitazone 0.5 mg/kg, listed as Rosiglitazone
  Serum Glucose % Normalized Reduction: (28.8) %
db/db mice; [8]
  Serum Glucose % Pre-Treatment Baseline: 72.2 ± 6.5%
  serum glucose % Reduction relative to vehicle: (22.4) %
db/db mice; [9]
  Serum Glucose % Pre-Treatment Baseline: 61.2 ± 6.6%
  serum glucose % Reduction relative to vehicle: (39.5) %

## CCOC(=O)C1=C(COCCN)NC2=C(C(=O)CC(C)(C)C2)C1c1ccccn1 (stereo not shown) [Compound 9, 2-(2-amino-ethoxymethyl)-7,7-dimethyl-5-oxo-4-pyridin-2-yl-1,4,5,6,7,8-hexahydro-quinoline-3-carboxylic acid ethyl ester]
Primary rat hepatocytes
  EC50: > 50 µM
[3]; day 3, 50 mg/kg oral gavage once daily
  percent normalized reduction in blood glucose relative to vehicle control: 13.6%
[3]; day 7, 50 mg/kg oral gavage once daily
  percent normalized reduction in blood glucose relative to vehicle control: 21.1%
